According to ChEMBL document CHEMBL2046305, “Discovery of selective menaquinone biosynthesis inhibitors against Mycobacterium tuberculosis” (J Med Chem, 2012):
Values after ≈ are worked out from the molar mass of the structure shown.

Test system: Mycobacterium tuberculosis
Assay: Antibacterial activity against Mycobacterium bovis BCG by microplate alamar blue assay
Format: functional
Conditions: variant bovis BCG

Row | SMILES | MIC
1 | CCCCCC[C@H](CN1CCC(COc2cccc(C(=O)c3ccc(Cl)cc3)c2)CC1)OC(N)=O | 3 µg/mL (≈ 5.99 µM)
2 | CCCCCC[C@H](CN1CCC(COc2cccc(/C(=N\OC)c3ccc(Cl)cc3)c2)CC1)OC(N)=O | 2.95 µg/mL (≈ 5.56 µM)
